Experiments:
[1] = DRUGMATRIX: Atrial Natriuretic Factor (ANF) radioligand binding (ligand: [125I] ANF (rat)); format: cell membranes, Cavia porcellus, Dunkin-Hartley, Adrenal gland, Membrane; conditions: Not Active = under 50% inhibition at 10 µM
[2] = molecular target: T1, Calcitonin receptor (Homo sapiens, UniProt P30988); format: cell membranes, Membrane; conditions: t47d; further: in other assays of this panel Not Active means under 50% inhibition at 10 µM
T1 sequence (P30988 whole entry): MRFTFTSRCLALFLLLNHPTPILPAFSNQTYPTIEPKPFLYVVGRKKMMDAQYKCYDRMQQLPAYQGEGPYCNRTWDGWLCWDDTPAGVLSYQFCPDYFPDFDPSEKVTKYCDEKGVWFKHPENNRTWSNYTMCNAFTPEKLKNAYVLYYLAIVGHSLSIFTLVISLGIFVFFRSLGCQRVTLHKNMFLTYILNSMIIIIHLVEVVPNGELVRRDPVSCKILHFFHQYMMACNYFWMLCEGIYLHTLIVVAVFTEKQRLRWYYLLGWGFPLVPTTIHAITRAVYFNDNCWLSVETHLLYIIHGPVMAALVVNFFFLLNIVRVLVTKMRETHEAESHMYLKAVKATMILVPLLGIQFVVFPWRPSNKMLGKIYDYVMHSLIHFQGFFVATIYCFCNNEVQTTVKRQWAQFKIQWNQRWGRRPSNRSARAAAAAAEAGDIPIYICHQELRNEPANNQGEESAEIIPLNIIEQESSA

[3] = DRUGMATRIX: Calcium Channel Type L, Dihydropyridine radioligand binding (ligand: [3H] Nitrendipine); format: cell membranes, Rattus norvegicus, Wistar, Cerebral cortex, Membrane; conditions: Not Active = under 50% inhibition at 10 µM
[4] = molecular target: Cannabinoid receptor 1 (Homo sapiens, UniProt P21554); format: cell membranes, Membrane; conditions: chem-1; further: in other assays of this panel Not Active means under 50% inhibition at 10 µM
Sequence of Cannabinoid receptor 1 (P21554 whole entry): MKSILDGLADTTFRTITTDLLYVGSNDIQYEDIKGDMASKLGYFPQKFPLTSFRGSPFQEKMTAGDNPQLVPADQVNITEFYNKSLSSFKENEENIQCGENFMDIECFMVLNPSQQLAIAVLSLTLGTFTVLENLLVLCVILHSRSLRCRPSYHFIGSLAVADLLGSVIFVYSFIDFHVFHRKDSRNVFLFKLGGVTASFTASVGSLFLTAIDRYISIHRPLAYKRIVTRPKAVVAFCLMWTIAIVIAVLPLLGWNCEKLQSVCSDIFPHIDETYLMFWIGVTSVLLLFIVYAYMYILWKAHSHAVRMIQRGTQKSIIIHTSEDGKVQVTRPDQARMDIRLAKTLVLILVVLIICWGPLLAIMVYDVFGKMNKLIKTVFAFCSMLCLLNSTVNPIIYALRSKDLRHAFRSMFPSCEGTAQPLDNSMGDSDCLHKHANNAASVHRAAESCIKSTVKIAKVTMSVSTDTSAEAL

[5] = DRUGMATRIX: GABAA, Chloride Channel, TBOB radioligand binding (ligand: [3H] TBOB); format: cell membranes, Rattus norvegicus, Wistar, Cerebral cortex, Membrane; conditions: Not Active = under 50% inhibition at 10 µM
[6] = molecular target: Glycine receptor (Rattus norvegicus, UniProt P22771+P24524+P07727+P20781); format: cell membranes, Wistar, Spinal cord, Membrane; further: in other assays of this panel Not Active means under 50% inhibition at 10 µM
[7] = DRUGMATRIX: Nicotinic Acetylcholine radioligand binding (ligand: [125I] Epibatidine); format: cell membranes, Membrane; conditions: imr-32; Not Active = under 50% inhibition at 10 µM
[8] = molecular target: T2, Glucocorticoid receptor (Homo sapiens, UniProt P04150); conditions: hela s3; further: in other assays of this panel Not Active means under 50% inhibition at 10 µM
T2 sequence (P04150 whole entry): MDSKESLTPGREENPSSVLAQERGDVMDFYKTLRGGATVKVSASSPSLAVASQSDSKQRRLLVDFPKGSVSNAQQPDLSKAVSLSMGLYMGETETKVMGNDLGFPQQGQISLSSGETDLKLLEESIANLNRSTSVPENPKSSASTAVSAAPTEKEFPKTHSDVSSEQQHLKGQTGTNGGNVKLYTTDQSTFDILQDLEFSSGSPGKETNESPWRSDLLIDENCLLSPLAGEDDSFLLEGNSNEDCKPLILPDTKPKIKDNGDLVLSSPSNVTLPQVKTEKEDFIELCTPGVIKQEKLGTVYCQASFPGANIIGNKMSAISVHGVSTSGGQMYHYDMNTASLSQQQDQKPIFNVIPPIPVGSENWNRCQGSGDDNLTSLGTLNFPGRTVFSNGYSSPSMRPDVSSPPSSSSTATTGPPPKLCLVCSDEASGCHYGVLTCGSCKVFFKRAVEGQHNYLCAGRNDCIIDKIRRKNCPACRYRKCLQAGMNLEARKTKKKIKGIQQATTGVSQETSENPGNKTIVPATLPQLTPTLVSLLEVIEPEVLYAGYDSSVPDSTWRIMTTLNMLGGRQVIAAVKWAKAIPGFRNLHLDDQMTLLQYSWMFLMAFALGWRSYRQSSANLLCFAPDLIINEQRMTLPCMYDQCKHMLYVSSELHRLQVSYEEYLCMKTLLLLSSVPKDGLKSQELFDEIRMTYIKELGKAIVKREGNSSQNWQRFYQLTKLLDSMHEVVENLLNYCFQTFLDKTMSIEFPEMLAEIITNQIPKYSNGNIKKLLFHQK

CADMIUM ACETATE
Not Active: IC50 [1] | Ki [1] | IC50 [2] | Ki [2] | IC50 [3] | Ki [3] | IC50 [4] | Ki [4] | IC50 [5] | Ki [5] | IC50 [6] | Ki [6] | IC50 [7] | Ki [7] | IC50 [8] | Ki [8]

LEAD (II) ACETATE
Not Active: IC50 [1] | Ki [1] | IC50 [2] | Ki [2] | IC50 [3] | Ki [3] | IC50 [4] | Ki [4] | IC50 [5] | Ki [5] | IC50 [6] | Ki [6] | IC50 [7] | Ki [7] | IC50 [8] | Ki [8]

LIPOPOLYSACCHARIDE E. COLI O55:B5
Not Active: IC50 [1] | Ki [1] | IC50 [2] | Ki [2] | IC50 [3] | Ki [3] | IC50 [4] | Ki [4] | IC50 [5] | Ki [5] | IC50 [6] | Ki [6] | IC50 [7] | Ki [7] | IC50 [8] | Ki [8]
